Measurements published in patent US5491172A, “N-acyl sulfamic acid esters (or thioesters), N-acyl sulfonamides, and N-sulfonyl carbamic acid esters (or thioesters) as hypercholesterolemic agents” (Warner-Lambert Company, priority 1994, dated 1996).
Counter-ions that a name gives are not always drawn.

Key:
[1] = in vivo screen APCC: blood cholesterol in rats fed overnight a high fat, high cholesterol (PCC) diet; conditions: male Sprague-Dawley rats, dosed at 4 PM, PCC diet with 0.5% cholic acid overnight, blood sampled 8 AM, dose not given
From the text: In one in vivo screen designated APCC, male Sprague-Dawley rats (200 to 225 g) were randomly divided into treatment groups and dosed at 4 PM with either vehicle (CMC/Tween) or suspensions of compounds in vehicle. The normal chow diet was then replaced with a high fat, high cholesterol diet (designated PCC) containing 0.5% cholic acid. The rats consumed this diet ad libitum during the night and were sacrificed at 8 AM to obtain blood samples for cholesterol analysis using standard procedures. Statistical differences between mean cholesterol values for the same vehicle were determined using analysis of variance followed by Fisher's least significant test.

[2] = target: acyl-CoA:cholesterol acyltransferase (ACAT); assay: in vitro ACAT inhibition (LAI): radiolabeled cholesterol oleate formed from radiolabeled oleic acid in rat liver microsomes; assay type: biochemical; conditions: concentration required to inhibit enzyme activity by 50%
Protocol: The ability of representative compounds of the present invention to inhibit ACAT was measured using an in vitro test more fully described in Field FJ, Salone RG, Biochemica et Biophysica, 1982;712:557-570. The test assesses the ability of a test compound to inhibit the acylation of cholesterol by oleic acid by measuring the amount of radiolabeled cholesterol oleate formed from radiolabeled oleic acid in a tissue preparation containing rat liver microsomes.

Row | IC50 [2] | IC50 ([2]; sodium salt) | Structure (SMILES) | % Change (mg/dl) in cholesterol [1] | % Change (mg/dl) in cholesterol ([1]; sodium salt)
1 | 15 µM | – | CC(C)c1cccc(C(C)C)c1OS(=O)(=O)NC(=O)C1CCc2ccccc2C1 (stereo not shown) [Example 29, sulfamic acid[(1,2,3,4-tetrahydro-2-naphthyl)carbonyl]-2,6-bis(1-methylethyl)phenylester] | -9% | –
2 | 4.1 µM | – | CC(C)c1cccc(C(C)C)c1OS(=O)(=O)NC(=O)C1(c2ccccc2)CCCC1 [Example 30, sulfamic acid[(1-phenylcyclopentyl)carbonyl]-2,6-bis(1-methylethyl)phenyl ester] | -40% | –
3 | 3.3 µM | – | CCC(C)C(C(=O)NS(=O)(=O)Oc1c(C(C)C)cccc1C(C)C)c1ccccc1 (stereo not shown) [Example 31, sulfamic acid(3-methyl-1-oxo-2-phenylpentyl)-2,6-bis(1-methylethyl)phenyl ester] | -30% | –
4 | 8.9 µM | – | CCC(C(=O)NS(=O)(=O)Oc1c(C(C)C)cccc1C(C)C)c1ccccc1 (stereo not shown) [Example 32, sulfamic acid(1-oxo-2-phenylbutyl)-2,6-bis(1-methylethyl)phenyl ester] | -48% | –
5 | 9.3 µM | – | CC(C)c1cccc(C(C)C)c1OS(=O)(=O)NC(=O)C(c1ccccc1)C1CCCCC1 (stereo not shown) [Example 33, sulfamic acid(cyclohexylphenylacetyl)-2,6-bis(1-methylethyl)phenyl ester] | -63% | –
6 | 7.7 µM | – | CC(C)c1cccc(C(C)C)c1OS(=O)(=O)NC(=O)C(C)(c1ccccc1)c1ccccc1 [Example 34, sulfamic acid(1-oxo-2,2-diphenylpropyl)-2,6-bis(1-methylethyl)phenyl ester] | -67% | –
7 | 8.9 µM | – | CC(C)c1cccc(C(C)C)c1OS(=O)(=O)NC(=O)C(c1ccc(Cl)cc1)c1ccc(Cl)cc1 [Example 35, sulfamic acid[bis-(4-chlorophenyl)acetyl]-2,6-bis(1-methylethyl)phenyl ester] | -9% | –
8 | 22 µM | – | CC(C)c1cccc(C(C)C)c1OS(=O)(=O)NC(=O)C1c2ccccc2Oc2ccccc21 [Example 36, sulfamic acid[(9H-xanthen-9-yl)carbonyl]-2,6-bis(1-methylethyl)phenyl ester] | -6% | –
9 | 16 µM | – | CC(C)c1cccc(C(C)C)c1OS(=O)(=O)NC(=O)C1c2ccccc2-c2ccccc21 [Example 37, sulfamic acid[(9H-fluoren-9yl)carbonyl]-2,6-bis(1-methylethyl)phenyl ester] | -50% | –
10 | 31 µM | – | CC(C)c1cccc(C(C)C)c1OS(=O)(=O)NC(=O)CCc1ccccc1 [Example 38, sulfamic acid(1-oxo-3-phenylpropyl)-2,6-bis(1-methylethyl)phenyl ester] | -16% | –
11 | 32 µM | – | CC(C)c1cccc(C(C)C)c1OS(=O)(=O)NC(=O)C(Br)c1ccccc1 (stereo not shown) [Example 39, sulfamic acid[bromo(phenyl)acetyl]-2,6l-bis(1-methylethyl)phenyl ester] | +5% | –
12 | 32 µM | – | CC(C)c1cc(C(C)C)c(C=CC(=O)NS(=O)(=O)Oc2c(C(C)C)cccc2C(C)C)c(C(C)C)c1 [Example 40, sulfamic acid[1-oxo-3-[2,4,6-tris-(1-methylethyl)phenyl]-2-propenyl]-2,6-bis-(1-methylethyl)phenyl ester] | -54% | –
13 | 28 µM | – | CC(C)c1cc(C(C)C)c(CCC(=O)NS(=O)(=O)Oc2c(C(C)C)cccc2C(C)C)c(C(C)C)c1 [Example 41, sulfamic acid[1-oxo-3-[2,4,6-tris(1-methylethyl)phenyl]propyl]-2,6-bis(1-methylethyl)phenyl ester] | -73% | –
14 | 7 µM | – | CC(=O)OC(C(=O)NS(=O)(=O)Oc1c(C(C)C)cccc1C(C)C)c1c(C(C)C)cc(C(C)C)cc1C(C)C (stereo not shown) [Example 42, sulfamic acid[(acetyloxy)[2,4,6-tris(1-methylethyl)phenyl]acetyl]-2,6-bis(1-methylethyl)phenyl ester] | -25% | –
15 | 31 µM | – | CC(C)c1cc(C(C)C)c(C(O)C(=O)NS(=O)(=O)Oc2c(C(C)C)cccc2C(C)C)c(C(C)C)c1 (stereo not shown) [Example 43, sulfamic acid[hydroxy[2,4,6-tris(1-methylethyl)phenyl]acetyl]-2,6-bis(1-methylethyl)phenyl ester] | -45% | –
16 | 9.4 µM | – | CC(C)c1cc(C(C)C)c(C(F)C(=O)NS(=O)(=O)Oc2c(C(C)C)cccc2C(C)C)c(C(C)C)c1 (stereo not shown) [Example 44, sulfamic acid[fluoro[2,4,6-tris(1-methylethyl)phenyl]acetyl]-2,6-bis(1-methylethyl)phenyl ester] | -74% | –
17 | – | 5.6 µM | CCC(C)C(C(=O)NS(=O)(=O)Oc1c(C(C)C)cccc1C(C)C)c1ccccc1 (stereo not shown) [Example 45, sulfamic acid(3-methyl-1-oxo-2-phenylpentyl)-2,6-bis(1-methylethyl)phenyl ester sodium salt] | – | -63%
18 | 34 µM | – | CC(C)c1cc(C(C)C)c(OCC(=O)NS(=O)(=O)Oc2c(C(C)C)cccc2C(C)C)c(C(C)C)c1 [Example 46, sulfamic acid[[2,4,6-tris(1-methylethyl)phenoxy]acetyl]-2,6-bis(1-methylethyl)phenyl ester] | -57% | –
19 | 38 µM | – | CC(C)c1cccc(C(C)C)c1OCC(=O)NS(=O)(=O)Oc1c(C(C)C)cccc1C(C)C [Example 47, sulfamic acid[[2,6-bis(1-methylethyl)phenoxy]acetyl]-2,6-bis(1-methylethyl)phenyl ester] | -46% | –
20 | 8.3 µM | – | CC(C)c1cc(C(C)C)c(CC(=O)NS(=O)(=O)Oc2c(-c3ccccc3)cccc2-c2ccccc2)c(C(C)C)c1 [Example 48, sulfamic acid[[2,4,6-tris(1-methylethyl)phenyl]acetyl]-2,6-bis(phenyl)phenyl ester] | -73% | –
